Tests used:
[1] = system: C2C12 myotubes; experiment: NAD+ levels in C2C12 myotubes after NRH treatment; format: cell-based
[2] = system: INS-1E cells; experiment: Inflammatory cytokine (IL-1 b)-induced pancreatic β-cell death, cell viability; format: cell-based; conditions: IL-1 b 0.25 ng/ml, 24 hours, NRH 0.1 mM
Procedure: (§1) INS-1E cells were treated with Interleukin 1 b (IL-1 b; 0.25 ng/ml) for 24 hrs in the presence or absence of NRH (0.1 mM). PBS was used as vehicle for NRH. After 24 hrs, cell viability was evaluated by luminescence using a commercial kit (Cell Title-Glow; Promega). All results are expressed as mean+/−SEM of n=6 experiments. * indicates P<0.05 vs. the respective vehicle treated group.
INS-1E cells were treated with Interleukin 1 b (IL-1 b; 0.25 ng/ml) for 24 hours in the presence or absence of NRH (0.1 mM). PBS was used as vehicle for NRH. After 24 hours, cell viability was evaluated by luminescence using a commercial kit (Cell Title-Glow; Promega).

[3] = system: primary hepatocytes from control or NRK1 knockout (NRK1KO) mice; experiment: NAD+ levels in primary hepatocytes from control or NRK1 knockout mice; format: cell-based; conditions: 1 hour of treatment
Excerpt: The action of NRH was also NAMPT-independent, based on experiments using FK866, a NAMPT inhibitor. If NRH led to NAD+ synthesis via the formation of NMNH, this hypothetical path would require the phosphorylation of NRH into NMNH. Given the essential and rate-limiting role of NRK1 in NR phosphorylation, we wondered whether the ability of NRH to boost NAD+ levels was NRK1 dependent. To answer this question, we evaluated NRH action in primary hepatocytes from either control or NRK1 knockout (NRK1KO) mice. […] Further, they rule out the possibility that NRH-induced NAD+ […] is driven by NRH oxidation into NR.

[4] = Plasma NRH, NR and NAM in mice after oral administration; format: in vivo
Excerpt: Levels of NRH and other NAD-related metabolites in biological samples were obtained by using a cold liquid-liquid extraction using a mixture of methanol:water:chloroform in 5:3:5 (v/v), from which the polar phase was recovered for hydrophilic interaction ultra-high performance liquid chromatography mass spectrometry (UHPLC-MS) analysis. The UHPLC consisted of a binary pump, a cooled autosampler, and a column oven (DIONEX Ultimate 3000 UHPLC+ Focused, Thermo Scientific), connected to a triple quadrupole spectrometer (TSQ Vantage, Thermo Scientific) equipped with a heated electrospray ionisation (H-ESI) source. Of each sample, 2 μL were injected into the analytical column (2.1 mm×150 mm, 5 μm pore size, 200 Å HILICON iHILIC®-Fusion(P)), guarded by a pre-column (2.1 mm×20 mm, 200 Å HILICON iHILIC®-Fusion(P) Guard Kit) operating at 35° C. The mobile phase (10 mM ammonium acetate at pH 9, A, and acetonitrile, B) was pumped at 0.25 mL/min flow rate over a linear gradient of decreasing organic solvent (0.5-16 min, 90-25% B), followed by re-equilibration for a total run time of 30 min. The MS operated in positive mode at 3500 V with multiple reaction monitoring (MRM). The software Xcalibur v4.1.31.9 (Thermo Scientific) was used for instrument control, data acquisition and processing. Retention time and mass detection was confirmed by authentic standards.
(§2) Oral administration of NRH led to very similar results to those observed after IP administration. […] NRH was detectable in plasma 1 h after oral administration. In contrast, NR levels were undetectable at 1 h after NR administration.

[5] = system: mice; experiment: Hepatic NAD+ levels in mice after oral administration; format: in vivo
Procedure: 8 week-old C57BI/6NTac mice were orally gavaged with either saline (as vehicle), NR (500 mg/kg) or NRH (500 mg/kg). After 1 hour, liver, skeletal muscle and kidney NAD levels were evaluated. All results are expressed as mean +/−SEM of n=5 mice per group. * indicates statistical difference at p<0.05 vs. vs. saline-treated mice. #indicates statistical difference at p<0.05 vs. NR treated mice.
as §2

[6] = system: INS-1E cells; experiment: Oxidative stress (H2O2)-induced pancreatic β-cell death, cell viability; format: cell-based; conditions: H2O2 0.4 mM, 24 hours, NRH 0.1 mM
Procedure: as §1, with “hydrogen peroxide (H2O2; 0.4 mM)” for “Interleukin 1 b (IL-1 b; 0.25 ng/ml)”, “lumiscence” for “luminescence”, “n=5” for “n=6”
(§3) INS-1E cells were treated with hydrogen peroxide (H2O2; 0.4 mM) for 24 hours in the presence or absence of NRH (0.1 mM). PBS was used as vehicle for NRH. After 24 hours, cell viability was evaluated by luminescence using a commercial kit (Cell Title-Glow; Promega).

[7] = system: mice; experiment: Tissue NAD+ levels in mice after intraperitoneal injection; format: in vivo; conditions: IP 500 mg/kg, after 1 h
Procedure: The above results prompted us to test whether NRH could act as an effective NAD+ precursor in vivo. For this, we first intraperitoneally (IP) injected mice with either NR or NRH (500 mg/kg). […] Importantly, NRH was detectable in circulation after IP injection.

[8] = system: INS-1E cells; experiment: Lipotoxicity (palmitic acid)-induced pancreatic β-cell death, cell viability; format: cell-based; conditions: palmitic acid 0.4 mM, 24 hours, NRH 0.1 mM
Procedure: as §1, with “BSA-conjugated palmitic acid (0.4 mM)” for “Interleukin 1 b (IL-1 b; 0.25 ng/ml)”, “NRH, while fatty-acid free BSA was used as control for palmited treatment.” for “NRH.”, “n=8” for “n=6”
as §3, with “BSA-conjugated palmitic acid (0.4” for “hydrogen peroxide (H2O2; 0.4”, “NRH, while fatty-acid free BSA was used as control for palmited treatment.” for “NRH.”

[9] = system: AML12 hepatocytes; experiment: Intracellular NAD+ levels in AML12 hepatocytes treated with NRH or NR; format: cell-based
Procedure: Even at such relatively low dose, NRH achieved similar increases in intracellular NAD+ levels to those reached with NR at 50-fold higher concentrations.
NRH actions were also extremely fast (FIG. 3), as significant increases in NAD+ levels were observed within 5 minutes after NRH treatment.

## NC(=O)C1=CN([C@@H]2O[C@H](CO)[C@@H](O)[C@H]2O)C=CC1 [NRH]
[1]
  NAD+ levels: highly elevated
[2]
  Cell viability under Interleukin 1 b: protects against inflammatory citokyne-induced pancreatic β-cell death
[3]
  NAD+ levels in NRK1KO derived primary hepatocytes: not affected by NRK1 deficiency
[4]; mice, after oral gavage
  NRH concentration in plasma: 11.16 ± 1.74 µM
[4]; mouse, in vivo, po
  Administered compound in plasma: detectable
[5]
  Effect on hepatic NAD+ levels compared with NR: more potent effect on hepatic NAD+ levels than NR
[6]
  Cell viability under hydrogen peroxide: protects against oxidative stress-induced pancreatic β-cell death
[7]
  NAD+ levels in kidney: increased NAD+ levels
  NAD+ levels in liver: increased NAD+ levels
  NAD+ levels in muscle: increased NAD+ levels
[8]
  Cell viability under BSA-conjugated palmitic acid: protects against lipotoxicity-induced pancreatic β-cell death
[9]; AML12 hepatocytes
  Ability to increase intracellular NAD+ compared with NR: superior to that of NR
  Concentration range of maximal effects on NAD+ synthesis: around the millimolar range
[9]; AML12 hepatocytes (FIG. 3)
  Time after treatment at which significant increases in NAD+ levels were observed: ≤ 5 min
[9]; AML12 hepatocytes, NRH 10 μM vs NR
  Fold higher NR concentration needed for similar increase in intracellular NAD+ as NRH at 10 μM: 50 fold
[9]; AML12 hepatocytes, around the millimolar range
  Increase of intracellular NAD+ levels at maximal effect: more than 10 fold
[9]; AML12 hepatocytes, dose-response (FIG. 2)
  Concentration at which NAD+ levels are significantly increased: 10 µM
